Holding throughout (assay): NCI anticancer screen, dose series, 48 h
Assay [1] deals with A498 renal.
Assay [2] concerns KM12 colon.
For assay [3], the system named is MDA-MB-435.
Assay [4] has as its system MCF7 breast.
The test system of assay [5] is OVCAR-8 ovarian.
In assay [6] the test system is HS 578T breast.
Assay [7] relates to SK-MEL-2 melanoma.
In assay [8] the test system is RXF 393 renal.
In assay [9] the test system is DU-145 prostate.
Assay [10] relates to HL-60(TB) leukemia.

“And” between values parts separate entries of the source, which are not always exact repeats. Identical values can stand only once.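 Method: 48-hour compound exposure of cells in 96-well plates, five concentrations, linear interpolation of endpoints. Abbreviation: GI50, concentration required for 50% inhibition of growth. At the TGI there is no net growth.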 Starred links: 1 amine or outer side, 2 acyl side, 3 side chain; linkers in the order of their positions; H or OH if unused. Positions of bridges follow the written chain, without caps; N, C: chain ends. Non-standard residues stand in square brackets, D forms with d. Residues, ends and D or L forms follow the SMILES beside them. Chains are numbered I, II in the order given. Actinocin(1to9) = Cc1c2oc3c(C)ccc(C(=O)[*:2])c3nc-2c(C(=O)[*:1])c(N)c1=O; NMeV = CN[CH](C(=O)O)C(C)C; Sar = CNCC(=O)O Some results are limits rather than exact numbers.

In PubChem BioAssay (NCI) one finds TGI and GI50 data, which are given here for 28 molecules.

For `O=c1[nH]c(Nc2ccc(Cl)c(C(F)(F)F)c2)nc2nc[nH]c12`, the TGI in assay [1] is 60.9 µM; in assay [2] it was > 100 µM; in [3] it was > 100 µM; in assay [4] it was > 100 µM; in assay [5] it was > 100 µM; in assay [6], > 100 µM. For the same molecule, the TGI was 91.2 µM in [7], > 100 µM in assay [8] and > 100 µM in assay [9].
Take `Nc1ncnc2c1sc1nc3ccccc3n12`: the TGI in assay [1] was > 100 µM; in [2], > 85 µM; in assay [3], > 100 µM; in [4], > 100 µM; in assay [5], > 100 µM; in assay [6] it was > 96.4 µM. Besides, the TGI in assay [7] is > 100 µM; in [8] it was > 69.1 µM; in [9], > 100 µM.
In the case of `CC(C)(C)OC(=O)NC(CCCCNC(=O)OCc1ccccc1)C(=O)NCCNc1ccc(NCCNC(=O)C(CCCCNC(=O)OCc2ccccc2)NC(=O)OC(C)(C)C)c2c1C(=O)c1ccccc1C2=O` (centres undefined), the TGI in assay [1] was > 100 µM; in assay [2], > 100 µM; in [3], > 100 µM; in assay [4], 27.2 µM; in [5] it was > 78.1 µM; in assay [6], > 49.7 µM. For the same molecule, the TGI was 20.5 µM in assay [7], 88.9 µM in assay [8] and > 100 µM in assay [9].
In the case of `COc1c(CC=C(C)C)c(O)c(C(CC(C)C)c2c(O)c3c(c(C(C)=O)c2O)OC(C(C)(C)O)C3)c(O)c1C(C)=O` (centres undefined), the TGI in assay [1] is 12.3 µM; in [10], 7.55 µM; in [2], > 12.5 µM; in [3], > 12.5 µM; in [4], 9.87 µM; in [5] it was > 12.5 µM. The TGI is > 12.5 µM in assay [6], > 12.5 µM in assay [7], 10.9 µM in assay [8] and > 12.5 µM in assay [9].
In the case of `O=C(O[C@@H](/C=C/c1ccccc1)P1(=O)N(Cc2ccccc2)[C@H]2CCCC[C@@H]2N1Cc1ccccc1)c1ccccc1`, the TGI in [1] was 8.43 µM; in assay [10] it was 7.66 µM; in [2] it was 14.8 µM; in assay [3], > 100 µM; in assay [4] it was 6.77 µM; in assay [5], > 100 µM. For the same molecule, the TGI in assay [6] is > 100 µM; in [7] it was 3.98 µM; in assay [8] it was 7.85 µM; in assay [9], > 100 µM.
Take `O=C(CSc1nc2ccc([N+](=O)[O-])cc2s1)c1ccc2ccccc2c1`: the TGI in assay [1], in [10], in [2], in assay [3], in assay [4] and in [5] was > 100 µM in each case. Besides, the TGI in assay [6], in assay [7], in [8] and in assay [9] was > 100 µM each time.
Turning to `COc1ccc(C2NC(=S)Nc3c2c(=O)oc2c3ccc3ccccc32)cc1` (centres undefined), the TGI in assay [1], in assay [10], in assay [2], in assay [3], in assay [4] and in assay [5] was > 100 µM in each case. Moreover, the TGI in assay [6], in assay [7], in assay [8] and in assay [9] was > 100 µM each time.
With `COCC1CCCN1c1ccc(C=N/C(C#N)=C(\N)C#N)cc1` (centres undefined), the GI50 in assay [1] is > 100 µM; in assay [2] it was > 100 µM; in assay [3] it was > 100 µM; in assay [4], 33.4 µM; in assay [5], 45.3 µM; in [6], > 100 µM. The GI50 is > 100 µM in assay [7], 38.4 µM in [8] and 6.25 µM in assay [9]. Also, the TGI in [1], in assay [2], in assay [3], in [4], in [5] and in assay [6] was > 100 µM each time. For the same molecule, the TGI in assay [7], in [8] and in [9] was > 100 µM throughout.
Turning to `Cc1c(N2C(=O)/C(=C/c3ccc(Cl)cc3)N=C2c2ccccc2)c(=O)n(-c2ccccc2)n1C`, the TGI in assay [10] is 57 µM; in [2] it was > 100 µM; in [3], 43.8 µM; in assay [4], > 100 µM; in assay [5] it was > 100 µM; in assay [7] it was 39.9 µM. Further, the TGI in [8] was 76.8 µM; in [9], > 100 µM.
`CCOC(=O)C(/C(=N/S(=O)(=O)c1cc(C)c(Cl)cc1[S-])[n+]1ccc(N(C)C)cc1)=C(/O)c1ccc([N+](=O)[O-])cc1`: the TGI in [1] was 60.4 µM; in assay [10] it was 64.5 µM; in [2], 82.7 µM; in [3] it was > 100 µM; in assay [4], > 100 µM; in assay [5] it was > 100 µM. In addition, the values for the TGI in assay [7], in assay [8] and in assay [9] were 28.3 µM, > 100 µM and > 100 µM, respectively.
In the case of `N#CC12Cc3cc4c(cc3-c3cccc(c31)CCN2C(=O)c1ccccc1)OCO4` (centres undefined), the TGI in assay [1], in [10], in assay [2], in assay [5], in assay [7] and in assay [8] was > 100 µM in each case.
Take `Cn1cnc([N+](=O)[O-])c1Sc1nc(N)nc2c1ncn2C1OC(CO)C(O)C1O` (centres undefined): the TGI is 28.4 µM in [10]; 32.7 µM in assay [2]; 29.7 µM in [3]; > 100 µM in [5]; > 100 µM in [6]; 21.1 µM in assay [7]. In addition, the values for the TGI in assay [8] and in [9] were 21.6 µM and 66.4 µM, respectively.
For `Cc1ccccc1N=Nc1c(O)c(S(=O)(=O)O)cc2cc(S(=O)(=O)O)ccc12`, the TGI in assay [1], in [10], in assay [2], in assay [3], in assay [4] and in assay [5] was > 100 µM in each case. Moreover, the TGI in assay [6], in assay [7], in assay [8] and in assay [9] was > 100 µM each time.
As for `COCCNCc1ccc(-c2cc3nccc(Oc4ccc(NC(=S)NC(=O)Cc5ccc(F)cc5)cc4F)c3s2)nc1`, the GI50 in assay [1] was 2.11 µM; in assay [2] it was 0.328 µM; in [5], 2.17 µM; in [6] it was 1.81 µM; in assay [7], 6.01 µM. The TGI in assay [1] turned out to be 8.71 µM; in assay [2] it was 2 µM; in assay [5], 5.12 µM; in assay [6] it was 4.91 µM; in assay [7] it was 19.1 µM.
With `COc1cc2oc(=O)ccc2cc1C(=O)CC(C)C`, the TGI in assay [1], in assay [10], in assay [2], in assay [3], in assay [4] and in assay [5] was > 100 µM throughout. Also, the TGI in assay [6], in [7] and in assay [9] was > 100 µM throughout.
Take `CCC(C)C1NC(=O)C(NC(=O)c2c3nc4c(C(=O)NC5C(=O)NC(C(C)CC)C(=O)N6CCCC6C(=O)N(C)CC(=O)N(C)C(C(C)C)C(=O)OC5C)ccc(C)c4oc-3c(C)c(=O)c2N)C(C)OC(=O)C(C(C)C)N(C)C(=O)CN(C)C(=O)C2CCCN2C1=O` (centres undefined) (I: TIP[Sar][NMeV] / II: TIP[Sar][NMeV]; ester I:1-I:C, II:1-II:C; linker I:N-II:N via Actinocin(1to9); configuration not given here): the TGI in [1] was determined as 0.0629 µM; in assay [10] it was 0.0186 µM; in [2], 0.194 µM; in [3], 0.0169 µM; in assay [5], 0.125 µM; in assay [6], 0.0841 µM. The TGI in [7] was 0.00277 µM; in [8], 0.0214 µM and 0.048 µM.
Consider `O=c1ccc2nc3cc(Br)ccc3sc-2c1`, for which the TGI in assay [10] was 37.5 µM; in assay [2], > 100 µM; in assay [7], > 100 µM.
Consider `Cn1c(=O)[nH]c2nncnc2c1=O`, for which the TGI is 475 µM in assay [1]; 55.2 µM in assay [10]; > 353 µM in assay [2]; > 501 µM in assay [4]; > 62.5 µM in assay [5]; 312 µM in assay [7]. The molecule further displayed a TGI in assay [8] of 123 µM.
On to `C[N+]1(CCC(=O)c2ccco2)CC2CCC(CC2)C1` (centres undefined), for which the TGI in [1], in assay [2], in assay [3], in assay [4], in assay [5] and in [6] was > 100 µM each time. In addition, the TGI in [7], in assay [8] and in assay [9] was > 100 µM each time.
With `OC(c1ccccc1)(c1ccccc1)c1nccc2ccccc12`, the TGI in [10], in [2], in assay [3], in assay [4], in assay [5] and in assay [6] was > 100 µM in each case. In addition, the TGI in assay [9] is > 100 µM.
With `O=C(O)c1ccc(C(=O)c2ccccc2C(=O)O)cc1C(=O)O`, the TGI in assay [1], in [10], in [2], in assay [3], in assay [4] and in assay [5] was > 100 µM each time. Further, the TGI in [6], in assay [7], in [8] and in [9] was > 100 µM throughout.
As to `Clc1ccccc1/C=c1\nc(-c2ccccc2)n2c1nc1ccccc12`, the TGI in [1], in [10], in [2], in [3], in assay [4] and in assay [5] was > 100 µM each time. Besides, the TGI is > 100 µM in assay [6], > 100 µM in assay [7], 41.9 µM in assay [8] and > 100 µM in [9].
In the case of `OCc1cn(C(c2ccccc2)(c2ccccc2)c2ccccc2)cn1`, the TGI was > 100 µM in assay [10]; > 100 µM in assay [3]; > 100 µM in [5]; 95.7 µM in [6]; > 100 µM in [7]; > 100 µM in assay [9].
In the case of `COc1ccc(C(=O)C2=NON3OC23C(=O)c2ccc(OC)cc2)cc1` (centres undefined), the TGI in assay [1] amounted to 18.2 µM; in assay [2], 36.6 µM; in assay [5], 21 µM; in [7] it was 34.5 µM; in [8], 17.1 µM.
Regarding `CC(=O)OC1CC[C@@]2(C)C(=CC[C@@H]3[C@@H]2CC[C@]2(C)Nc4nn(S(C)(=O)=O)cc4C[C@@H]32)C1` (some centres undefined), the TGI in assay [1] was > 100 µM; in [2], 81.8 µM; in assay [3] it was 50.1 µM; in [4], 40.7 µM; in assay [5], > 100 µM; in assay [6], > 100 µM. Further, the TGI in assay [7] was 58.8 µM; in assay [8], 95.3 µM; in assay [9], > 100 µM.
Take `COc1ccc2nc3c(C(=O)NCCN(C)C)cccc3cc2c1`: the TGI turned out to be 3.08 µM in [1]; 4.64 µM in assay [10]; 13 µM in assay [2]; 7.22 µM in [4]; 4.46 µM in [5]; 5.44 µM in assay [7]. This molecule also had a TGI in [8] of 5.28 µM.
Turning to `c1ccc(-c2nnn3c2NC2=C(CCCC2)C3c2ccccc2)cc1` (centres undefined), the TGI in assay [10] is 37.2 µM; in assay [2], 31.2 µM; in [3] it was 20.8 µM; in [4], 51.9 µM; in assay [5], 5.44 µM; in assay [6], 81.7 µM. The TGI in assay [7] was found to be 36 µM; in [8] it was 34.9 µM; in assay [9], 33.3 µM.
For `Nc1c(C(=O)O)nnc2cc(Cl)c(Cl)cc12`, the TGI in assay [1], in assay [10], in assay [2], in assay [3], in [4] and in assay [5] was > 100 µM each time. Further, the TGI in assay [6], in assay [7] and in assay [9] was > 100 µM in each case.
